According to US9493524B2, “Methods for treatment of stroke or cerebrovascular accidents using an ETB receptor agonist” (MIDWESTERN UNIVERSITY, priority 2007, dated 2016):
Numbered stars: 1 amine (or outer) side, 2 acyl side, 3 side chain; on linkers, the order of the positions; unused ones are H or OH. Peptide text beside a SMILES is read from it. Suc = O=C(CCC(=O)[*:2])[*:1]

Experiments:
Type in all cases: in vivo, Sprague-Dawley rats
[1] = tested on: urethane anesthetized rat; assay: Heart rate recording; details: IRL-1620 5 μg/kg, i.v.; for heart rate: mean±SEM, in bpm (unit assumed)
Protocol: (§1) Male Sprague-Dawley rats weighing 323±4 grams (g) were anesthetized with urethane (ethyl carbamate, Sigma Aldrich, St. Louis, Mo.) dissolved in isotonic saline (0.9% NaCl, Hospira, Inc., Lake Forest, Ill.). The rats were administered a dose of 0.15 g per 100 g body weight via intraperitoneal (i.p.) injection.
(§2) Blood Pressure and Heart Rate: The femoral vein and artery were cannulated. The arterial cannula was connected to a Gould P23 ID pressure transducer for recording the blood pressure on a Grass P7D polygraph through a 7PI preamplifier. The heart rate was recorded through a 7P4B Grass tachograph, triggered from blood pressure signals. Drugs were administered via the venous cannula.
(§3) The rats were randomly selected for various studies. Following surgery the rats were allowed to stabilize for 30 minutes and a 15 minutes baseline recording of all parameters (blood pressure, heart rate, cerebral blood flow, and renal blood flow) was obtained prior to the administration of the pretreatment followed by IRL-1620 (Suc-[Glu 9, Ala 11,15], American Peptide Co, Inc., Sunnyville, Calif.) or ET-1 (Ala 1,3,11,15, RBI Sigma, Natick, Mass.). BQ-788, a selective endothelin B antagonist, is the sodium salt of N-cis-2,6-dimethylpiperidinocarbonyl-L-gamma-methylleucyl-D-1-methoxycarbonyl triptophanyl-DNIe (see Proc. Natl. Acad. Sci. USA, 91, pp. 4892-4896 (1994)) BMS is BMS 182, 874, which is a selective endothelin A antagonist having a structure
(§4) Group 1: Animals (n=4) were pretreated with saline 15 minutes (min) prior to administration of IRL-1620 (5 μg/kg, i.v.).
(§5) Group 2: Animals (n=4) were pretreated with BMS (5 mg/kg, i.v.) 15 min prior to administration of IRL-1620 (5 μg/kg, i.v.).
(§6) Group 3: Animals (n=4) were pretreated with BMS (15 mg/kg, i.v.) 15 min prior to administration of IRL-1620 (5 μg/kg, i.v.).
Group 4: Animals (n=4) were pretreated with BQ788 (1 μg/kg, i.v.) 15 min prior to administration of IRL-1620 (5 μg/kg, i.v.). […]
(§7) Blood pressure, heart rate, cerebral blood perfusion, and renal blood perfusion all were recorded for 2 hours following the final injection. Blood gases were analyzed prior to administration of any drugs, and at 60 and 120 min following administration of IRL-1620 or ET-1. At the end of each experiment, the animals were euthanized with an overdose of urethane i.v. In the figures, all data values are presented as mean±SEM. One-sample t-tests and one-way ANOVAs were used to test the differences within and between the groups. A P value of P<0.05 was considered significant.

[2] = tested on: urethane anesthetized rat; assay: Blood pressure / mean arterial pressure recording; details: BMS 5 and 15 mg/kg, i.v., BQ788 1 μg/kg
Protocol: as §1, §2, §3, §4, §5, §6
(§8) Group 4: Animals (n=4) were pretreated with BQ788 (1 μg/kg, i.v.) 15 min prior to administration of IRL-1620 (5 μg/kg, i.v.).
(§9) Group 1: Animals (n=4) were pretreated with saline 15 min prior to administration of ET-1 (0.75 μg/kg, i.v.).
(§10) Group 2: Animals (n=4) were pretreated with BMS (5 mg/kg, i.v.) 15 min prior to administration of ET-1 (0.75 μg/kg, i.v.).
(§11) Group 3: Animals (n=4) were pretreated with BMS (15 mg/kg, i.v.) 15 min prior to administration of ET-1 (0.75 μg/kg, i.v.).
(§12) Group 4: Animals (n=4) were pretreated with BQ788 (1 μg/kg, i.v.) 15 min prior to administration of ET-1 (0.75 μg/kg, i.v.).
as §7

[3] = tested on: urethane anesthetized rat; assay: Renal blood perfusion by Laser Doppler Flowmetry; details: BMS 5 and 15 mg/kg, i.v., BQ788 1 μg/kg
Protocol: as §1
Renal Perfusion: The right kidney was dissected retroperitoneally. Renal perfusion was measured via a fiber optic probe (PF408) applied to the surface of the rat kidney. The probe was connected to a Periflux PF2b 4000 Laser Doppler Flowmetry unit (Perimed, Stockholm, Sweden).
as §3, §4, §5, §6, §8, §9, §10, §11, §12, §7

[4] = tested on: urethane anesthetized rat; assay: Cerebral blood perfusion by Laser Doppler Flowmetry
Protocol: as §1
Cerebral Perfusion: A burr hole was drilled into the rat skull about 2 millimeters (mm) to the left of midline. Cerebrovascular perfusion was measured via a fiber optic probe (PF407) applied to the surface of the rat brain. The probe was connected to a Periflux PF2b 4000 Laser Doppler Flowmetry unit (Perimed, Stockholm, Sweden).
as §3, §4, §5, §6, §8, §9, §10, §11, §12, §7

[5] = tested on: urethane anesthetized rat; assay: Arterial blood gas analysis; details: IRL-1620 5 μg/kg, i.v., ET-1 0.75 μg/kg
Protocol: as §1
Blood Gas Analysis: Arterial blood gases were monitored to determine the effects on pH, pCO2, and pO2. Blood was drawn from the arteriole cannula and analyzed using a GEM Premier 3000 unit (Instrument Laboratory, Lexington, Mass.).
as §7

[6] = time 0 min (prior to any drugs)

For Cc1noc(NS(=O)(=O)c2cccc3c(N(C)C)cccc23)c1C [BMS], the heart rate ([1]; 5 mg/kg BMS pretreatment, time 0 min) was 339 ± 6, the heart rate ([1]; 5 mg/kg BMS pretreatment, time 1 min) was 365 ± 4 and the heart rate ([1]; 5 mg/kg BMS pretreatment, time 5 min) was 357 ± 13. It also gave a heart rate ([1]; 5 mg/kg BMS pretreatment, time 10 min) of 345 ± 14, a heart rate ([1]; 5 mg/kg BMS pretreatment, time 15 min) of 345 ± 14 and a heart rate ([1]; 5 mg/kg BMS pretreatment, time 30 min) of 356 ± 12. For the same compound, the heart rate ([1]; 5 mg/kg BMS pretreatment, time 45 min) was 367 ± 14, the heart rate ([1]; 5 mg/kg BMS pretreatment, time 60 min) was 370 ± 14 and the heart rate ([1]; 5 mg/kg BMS pretreatment, time 90 min) was 350 ± 9. It also gave a heart rate ([1]; 5 mg/kg BMS pretreatment, time 120 min) of 327 ± 12, a heart rate ([1]; 15 mg/kg BMS pretreatment, time 0 min) of 405 ± 11 and a heart rate ([1]; 15 mg/kg BMS pretreatment, time 1 min) of 425 ± 11. It also gave a heart rate ([1]; 15 mg/kg BMS pretreatment, time 5 min) of 382 ± 13, a heart rate ([1]; 15 mg/kg BMS pretreatment, time 10 min) of 380 ± 11 and a heart rate ([1]; 15 mg/kg BMS pretreatment, time 15 min) of 384 ± 11. The heart rate ([1]; 15 mg/kg BMS pretreatment, time 30 min) was 387 ± 17, the heart rate ([1]; 15 mg/kg BMS pretreatment, time 45 min) was 387 ± 21 and the heart rate ([1]; 15 mg/kg BMS pretreatment, time 60 min) was 395 ± 19. The heart rate ([1]; 15 mg/kg BMS pretreatment, time 90 min) was 393 ± 21, the heart rate ([1]; 15 mg/kg BMS pretreatment, time 120 min) was 386 ± 18 and the “effect of pretreatment on the effect of IRL-1620 on heart rate (Table 1)” value ([1]; BMS 5 and 15 mg/kg, BQ788) was “increase”. For the same compound, the “effect of pretreatment on the effect of ET-1 on mean arterial pressure” value ([2]; ET-1 0.75 μg/kg, FIG. 13) was “failed to alter”, the “effect of pretreatment on the effect of IRL-1620 on mean arterial pressure” value ([2]; IRL-1620 5 μg/kg, FIG. 12) was “transient hypotension similar to that observed in animals pretreated with saline” and the “effect of pretreatment on the effect of ET-1 on renal blood flow” value ([3]; ET-1 0.75 μg/kg, FIG. 10) was “No pretreatment significantly altered”. The “effect of pretreatment on the effect of IRL-1620 on renal blood flow” value ([3]; IRL-1620 5 μg/kg, FIG. 9) was “sustained decrease in renal blood flow up to 120 minutes”, the “effect of pretreatment on the effect of ET-1 on cerebral blood flow” value ([4]; BMS 5 and 15 mg/kg, i.v., BQ788 1 μg/kg, ET-1 0.75 μg/kg, FIG. 7) was “no significant change” and the “transient increase in cerebral blood flow” value ([4]; high dose of BMS (15 mg/kg, i.v.) pretreatment, 1 minute after administration of IRL-1620 5 μg/kg, FIG. 6) was 37.99%.

With CC[C@H](C)[C@H](NC(=O)[C@H](CC(=O)O)NC(=O)[C@H](CC(C)C)NC(=O)[C@H](Cc1c[nH]cn1)NC(=O)[C@H](C)NC(=O)[C@H](Cc1ccccc1)NC(=O)[C@H](Cc1ccc(O)cc1)NC(=O)[C@@H](NC(=O)[C@H](C)NC(=O)[C@H](CCC(=O)O)NC(=O)[C@H](CCC(=O)O)NC(=O)[C@H](CC(=O)O)NC(=O)CCC(=O)O)C(C)C)C(=O)N[C@H](C(=O)N[C@@H](Cc1c[nH]c2ccccc12)C(=O)O)[C@@H](C)CC [IRL-1620, N-Succinyl-[Glu^9, Ala^11,15]-Endothelin 1 fragment 8-21] (Suc-DEEAVYFAHLDIIW-OH) the “effect on arterial blood gases (text to Table 2)” value [5] was “Neither IRL-1620 nor ET-1 significantly affected blood gases”, the “arterial blood pCO2” value [5, 6] was 42 ± 2 and the “arterial blood pH” value [5, 6] was 7.32 ± 0.01. For the same compound, the “arterial blood pO2” value [5, 6] was 103 ± 3, the “arterial blood pCO2” value ([5]; time 60 min) was 46 ± 6 and the “arterial blood pH” value ([5]; time 60 min) was 7.27 ± 0.01. The “arterial blood pO2” value ([5]; time 60 min) was 99 ± 9, the “arterial blood pCO2” value ([5]; time 120 min) was 32 ± 3 and the “arterial blood pH” value ([5]; time 120 min) was 7.29 ± 0.01. For the same compound, the “arterial blood pO2” value ([5]; time 120 min) was 113 ± 6.
